Values of other authors in patent US6068858A, “Methods of making nanocrystalline formulations of human immunodeficiency virus (HIV) protease inhibitors using cellulosic surface stabilizers” (Elan Pharma International Limited, priority 1999, dated 2000).
Like-named read-outs stand apart in the source and are kept apart here.

Experiments:
HIV RT = conditions: background statement; for side effects: interfere with cellular enzymes

O[C@H](CS)[C@H](O)CS (racemic) [ddT, dithiothreitol]
effectiveness in treating HIV infection (HIV RT): only modestly effective | side effects (HIV RT): severe side effects

CC(C)c1nc(CN(C)C(=O)N[C@H](C(=O)N[C@@H](Cc2ccccc2)C[C@H](O)[C@H](Cc2ccccc2)NC(=O)OCc2cncs2)C(C)C)cs1 [ABT-538]
oral bioavailability (in vivo, po): low oral bioavailability

Cc1c(O)cccc1C(=O)N[C@@H](CSc1ccccc1)[C@H](O)CN1C[C@H]2CCCC[C@H]2C[C@H]1C(=O)NC(C)(C)C [AG1343]
oral bioavailability (in vivo, po): low oral bioavailability

Cc1cn([C@H]2C[C@H](N=[N+]=[N-])[C@@H](CO)O2)c(=O)[nH]c1=O [AZT, azidothymidine]
side effects (HIV RT): severe side effects

Nc1cccc(CN2C(=O)N(Cc3cccc(N)c3)[C@H](Cc3ccccc3)[C@H](O)[C@@H](O)[C@H]2Cc2ccccc2)c1 [DMP-450]
oral bioavailability (in vivo, po): low oral bioavailability

CSC[C@H](NC(=O)COc1cccc2cnccc12)C(=O)N[C@@H](Cc1ccccc1)[C@H](O)C(=O)N1CSC[C@H]1C(=O)NC(C)(C)C [KNI-272]
oral bioavailability (as reported in literature): low oral bioavailability

CC(C)(C)NC(=O)[C@@H]1CN(Cc2cccnc2)CCN1C[C@@H](O)C[C@@H](Cc1ccccc1)C(=O)N[C@H]1c2ccccc2C[C@H]1O [MK-639]
oral bioavailability (in vivo, po): low oral bioavailability

N#Cc1ccc(S(=O)(=O)Nc2cccc(C(c3c(O)c4c(oc3=O)CCCCCC4)C3CC3)c2)cc1 (stereo not shown) [U-103,017]
oral bioavailability (as reported in literature): low oral bioavailability

CC(C)CN(C[C@@H](O)[C@H](Cc1ccccc1)NC(=O)O[C@H]1CCOC1)S(=O)(=O)c1ccc(N)cc1 [VX-478]
oral bioavailability (in vivo, po): low oral bioavailability

O=c1[nH]cnc2c1ncn2[C@H]1CC[C@@H](CO)O1 [ddI, didanosine]
effectiveness in treating HIV infection (HIV RT): only modestly effective | side effects (HIV RT): severe side effects

CC(C)(C)NC(=O)[C@@H]1C[C@@H]2CCCC[C@@H]2CN1C[C@@H](O)[C@H](Cc1ccccc1)NC(=O)[C@H](CC(N)=O)NC(=O)c1ccc2ccccc2n1 [saquinavir]
oral bioavailability (in vivo, po): low oral bioavailability
